This is an account of results in ChEMBL document CHEMBL1148565 (Bioorg Med Chem Lett, 2006).

For this assay, the target named is Carbonic anhydrase 12 (Homo sapiens, UniProt O43570).

SMILES strings stand for the structures.

Carbonic anhydrase 12, sequence (O43570 whole entry): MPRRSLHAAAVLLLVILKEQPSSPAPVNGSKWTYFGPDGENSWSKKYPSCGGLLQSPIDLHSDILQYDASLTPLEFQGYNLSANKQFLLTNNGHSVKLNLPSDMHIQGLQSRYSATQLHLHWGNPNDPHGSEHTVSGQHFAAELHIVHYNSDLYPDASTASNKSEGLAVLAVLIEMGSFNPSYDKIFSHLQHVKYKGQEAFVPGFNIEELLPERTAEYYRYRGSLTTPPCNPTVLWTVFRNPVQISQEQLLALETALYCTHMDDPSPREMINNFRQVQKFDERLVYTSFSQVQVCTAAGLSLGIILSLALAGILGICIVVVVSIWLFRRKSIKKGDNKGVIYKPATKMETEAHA
Description: Inhibitory activity against cloned human CA12

`Cc1ccc(-c2cc(C(F)(F)F)nn2-c2ccc(S(N)(=O)=O)cc2)cc1` [CELECOXIB]: affinity was put at a Ki of 18 nM.

Broadly, the Ki is the equilibrium dissociation constant of an inhibitor or competing ligand from its target. A lower Ki goes with higher affinity.
